Laboratory results: PMC4104761, “Identification of a novel lytic peptide for the treatment of solid tumours” (Genes & Cancer, 2014)

Key:
[1] = test system: U87 cells; assay: Comparison of peptide variants by crystal violet staining and light microscopy
Excerpt: The sizes of the resulting in silico peptides varied from 10 to 30 amino acids. In order to facilitate their cellular internalisation, a TAT-HIV sequence was attached to the C-terminal ends. All peptides were […]. The peptide library was produced by Cambridge Peptides (Cambridge, UK). The peptides were then screened with the MTT (3-(4,5-dimethylthiazol-2-yl)-2,5-diphenyltetrazolium bromide) assay on U87 human glioma cells. Cellular morphology after peptide exposure was assessed by crystal violet staining and light microscopy. All experiments were performed in triplicate.
To increase the stability of the peptide, two further sub-formulations of the original formula (L-aa, containing only L-amino acids) were created: D-aa (retro inversed, (ri)), a peptide comprised of a backward sequence of the original in silico formula, yet made up solely of D-amino acids and an analogue peptide to original in silico peptide formula, comprised of D-amino acids. D-amino acids are highly resistant to protease mediated degradation and have a low immunogenic response. The respective peptide variants were tested in the following concentrations: 7.5, 10, 15, 20 and 25 µg/ml and incubated for 3 hours.

[2] = test system: HFF1 normal human foreskin fibroblasts; assay: MTT viability assay; assay type: cell-based; conditions: 20 µg Cypep-1/ml, 60 min incubation
Protocol: (§1) Cypep-1 was tested in various concentrations on a total of 17 cell lines, which included 13 human and 1 murine tumour cell line(s), as well as 3 normal human cell lines. Listed in detail: 4 human osteosarcoma (U2OS, SaOS2, HOS and MNNG-HOS), 6 human glioblastoma (A172, GaMg, LN18, U87, U373 and T98G) and 3 human mammary carcinoma cell lines (MCF7, AU565 and MDA-MB-468) as well as an additional murine mammary carcinoma cell line (4T1). Furthermore, 3 normal human cell lines were included: 2 normal human fibroblast cell lines (HFF1 and 142Br) as well as normal human osteoblasts (HOB).
(§2) All normal human cell lines were purchased from Promo Cell (Heidelberg, Germany). While the normal human foreskin fibroblasts (HFF1) were grown in DMEM medium as described above, the additional human skin fibroblast cell line (142Br) and the normal human osteoblasts (HOB) were cultured in purchased cell type specific growth mediums (Promo Cell, Heidelberg, Germany).
(§3) MTT proliferation assays were performed on all cell lines (with the exception of 142Br (human skin fibroblasts)), using monolayers of 15 000 cells in sterile 96 well tissue culture plates (Nunc™, Roskilde, Denmark), respectively. […]

[3] = test system: HOB normal human osteoblasts; assay: MTT viability assay; assay type: cell-based; conditions: 20 µg Cypep-1/ml, 60 min incubation
Protocol: as §1, §2, §3

[4] = test system: 4T1 murine mammary carcinoma cells; assay: Time-lapse confocal microscopy; assay type: cell-based; conditions: 20 µg Cypep-1/ml for 3 hours; strongest effect between 40 and 55 min
Protocol: 30.000 cells of the murine mammary carcinoma cell line 4T1 were seeded into a sterile 24 well dish (Nunc™, Roskilde, Denmark). After 24 hours, the monolayer culture was treated with 20µg Cypep-1/ml, followed by immediate observation of the cells at 37°C and 5% CO2 for a period of 3 hours by means of time-lapse confocal microscopy, using a Zeiss LSM510 Meta System (Carl Zeiss AG, Jena, Germany), equipped with both bright field optics and red fluorescence optics at 595nm. The same experiment was repeated as described above with 4T1 cells that had previously been stably transfected with red fluorescent protein, using a dsRed-expressing lentiviral vector pWPXL-dsRED as previously described by Niclou et al..

[5] = Liposome leakage assay (ANTS/DPX fluorescence); assay type: biochemical; conditions: 25°C, pH 7.4, fluorescence at 510 nm, triplicate; for leakage of ANTS from liposomes: 0 to 90 µg/ml
Protocol: To assess the membranolytic effect of Cypep-1 on the integrity of phospholipid model membranes, liposome leakage assays monitored by fluorescence spectroscopy were performed on 200 nm liposomes as described earlier. […] (purchased from CPC Scientific, San Jose, CA) was used as control in the leakage assays (Peptide A).
Negatively charged PBPS: EYL (1:1 mixture) as well as neutral pure EYL vesicles were used, in which both liposome types encapsulated the fluorochrome ANTS (8 aminonaphtalene-1,3,6 trisulfonic acid) and its corresponding quencher DPX (p-xylene-bis[N-pyridinium bromide]). In principle, a disruption of the liposomes' bi-layer induces leakage of the fluorophore ANTS. This entails an increase in fluorescence at 510 nm. All fluorescence spectra were recorded at 25°C and pH 7.4 on a Cary Eclipse Fluorescence Spectrophotometer (Varian Optical Spectroscopy Instruments, Mulgrave, Victoria, Australia). The respective titrations with Cypep-1 and the control Peptide A were performed in concentrations ranging from 0 µg/ml to 90 µg/ ml (0 µM to 26 µM). The fluorescence was measured for each concentration point of the concentration series, and all measurements were performed in triplicate. At the end of each measurement, Triton X-100 was added to a final concentration of 2 mM, to obtain the maximum membrane leakage. The resulting maximum fluorescence at 510 nm is defined as 100%, i.e. complete liposome breakdown. The induced leakages of the fluorophore ANTS due to exposure to the peptides were then evaluated as a percentage of its complete release after Triton X-100 exposure. The initial fluorescence intensity of the respective liposome solutions was defined as 0% leakage.

[6] = test system: 4T1 murine mammary carcinoma allografts; assay: Treatment of subcutaneous 4T1 murine breast cancer allografts; assay type: in vivo, BALB/c mice
Protocol: 10^6 4T1 murine metastatic breast cancer cells were grafted subcutaneously under Isofluran anaesthesia into the right upper quadrant of the back of 20 female BALB/c mice (average age 126,25 days; average weight 23.8g). At day 12, when the tumours of both groups had reached a tumour volume of 0.12cm^3 in average, 10 female mice (average weight 23.9 g) received a single intra-tumoural injection of 1200 µg of Cypep-1 dissolved in 300 µl 0.9% NaCl, whereas an equal injection volume of 0.9% NaCl was administered to the 10 animals of the control group (average weight 23.7 g). All injections were performed under isofluoran gas anaesthesia. The animals were then observed for signs of distress as described above. 24 hours after the injections, two animals (one assigned to the control and one of the treatment group) were sacrificed for histological analysis. The harvested tumours were immediately fixed in 4% buffered formaldehyde and embedded in paraffin, cut into 5 µm sections and stained with H&E.
In the remaining 18 experimental animals, the tumour size was measured at regular intervals (every 4th day) until day 24 post tumour grafting. All mice were monitored daily for signs of distress and pain. Those that became sick were euthanized humanely. All animal procedures described were in accordance with protocols approved by The National Animal Research Authority (Oslo, Norway).

YGRKKRRQRRRGKTLRVAKAIYKRYIE [Cypep-1]
cytotoxic effect / potency by crystal violet staining ([1]; U87 cells, 7.5, 10, 15, 20 and 25 µg/ml, 3 hours incubation): more potent than the parent L- amino acid formula | monolayer appearance by light microscopy ([1]; U87 monolayer, 15 µg/ml, 3 hours exposure): extensive cell loss | survival rate [2]: 66% | survival rate [3]: 44% | membrane disruption by time-lapse confocal microscopy [4]: extensive loss of cell content into the medium | leakage of ANTS from liposomes ([5]; 200 nm EYL liposomes): significant leakage of ANTS | leakage of ANTS from liposomes ([5]; 200 nm liposomes PBPS:EYL 1:1): significant leakage of ANTS | EC50 ([5]; ANTS/DPX leakage, 200 nm liposomes PBPS:EYL 1:1, read-out: S0.5, concentration necessary to achieve membrane disruption): 8.3 ± 0.5 µM | histological analysis of tumours ([6]; 24 hours after intra-tumoural administration of 1200 µg, H&E): extensive areas of necrosis | average tumour volume at day 24 ([6]; single intra-tumoural injection of 1200 µg at day 12, control 3.5 cm^3, P<0.0001): 1.1 cm^3 | median survival ([6]; single intra-tumoural injection of 1200 µg at day 12, control 20 days, P<0.0011): 32 days | signs of discomfort, pain or toxicity after intratumoural injection ([6]; single intra-tumoural injection of 1200 µg in 300µl 0.9% NaCl, BALB/c mice): None of the animals showed any signs of discomfort, pain or toxicity
